Assay results from US12180187B2, “1-phenyl-5-azinylpyrazolyl-3-oxyalkyl acids and their use for controlling unwanted plant growth” (BAYER AKTIENGESELLSCHAFT, priority 2019, dated 2024).

Assays:
ALOMY [1] = assay: Pre-emergence action at 320 g/ha against ALOMY; format: in vivo, Alopecurus myosuroides; settings: scored visually after about 3 weeks vs untreated controls (100% = plants have died)
Summary of the method: (§1)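 Percent herbicidal activity was assessed by eye roughly three weeks post-application, comparing with untreated plants. Treatment consisted of applying formulated compound in water plus 0.5% additive to covering soil at 600 l/ha before emergence.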

VERPE = assay: Pre-emergence action at 320 g/ha against VERPE; format: in vivo, Veronica persica; settings: visual scoring after about 3 weeks vs untreated controls
Summary of the method: as §1

VIOTR [2] = assay: Post-emergence action at 320 g/ha against VIOTR; format: in vivo, Viola tricolor; settings: visual rating about 3 weeks after treatment vs untreated controls
Excerpt: (§2) Accordingly, the compounds of the invention have good herbicidal action against a broad spectrum of weed grasses and broad-leaved weeds and are therefore suitable for controlling unwanted vegetation by the post-emergence method. • b) Seeds of monocotyledonous and dicotyledonous weeds and crop plants are placed in sandy loam in plastic or organic planting pots, covered with soil and cultivated in a greenhouse under controlled growth conditions. 2 to 3 weeks after sowing, the test plants are treated at the one-leaf stage. The compounds of the invention, formulated in the form of wettable powders (WP) or as emulsion concentrates (EC), are then sprayed onto the green parts of the plants as aqueous suspension or emulsion with addition of 0.5% additive at a water application rate of 600 l/ha (converted). After the test plants have been kept in the greenhouse under optimum growth conditions for about 3 weeks, the activity of the preparations is rated visually in comparison to untreated controls. For example, 100% activity=the plants have died, 0% activity=like control plants. Tables 39 to 49 below show the effects of selected compounds of the general formula (I) according to Tables 1 and 2 on various harmful plants and at an application rate corresponding to 320 g/ha, which were obtained by the experimental procedure mentioned above.

POLCO [3] = assay: Pre-emergence action at 320 g/ha against POLCO; format: in vivo, Fallopia convolvulus (Polygonum convolvulus); settings: visual scoring after about 3 weeks vs untreated controls
Summary of the method: as §1

DIGSA [4] = assay: Pre-emergence action at 320 g/ha against DIGSA; format: in vivo, Digitaria sanguinalis; settings: visual scoring after about 3 weeks vs untreated controls
Summary of the method: as §1

ALOMY [5] = assay: Post-emergence action against ALOMY, 320 g/ha; format: in vivo, Alopecurus myosuroides; settings: dosage 320 g/ha, visual rating about 3 weeks after treatment vs untreated controls (100% = plants died)
Summary of the method: (§3)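 Activity is a visual rating against untreated controls, with 0% like control and 100% dead plants, made about 3 weeks after treatment. Plants grown in sandy loam in the greenhouse received a post-emergence spray at the one-leaf stage of 320 g/ha, formulated as WP or EC with 0.5% additive in 600 l/ha water.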

ECHGC = assay: Pre-emergence action at 320 g/ha against ECHGC; format: in vivo, Echinochloa crus-galli; settings: visual scoring after about 3 weeks vs untreated controls
Summary of the method: as §1

ABUTH [6] = assay: Post-emergence action at 320 g/ha against ABUTH; format: in vivo, Abutilon theophrasti; settings: visual rating about 3 weeks after treatment vs untreated controls
Excerpt: as §2

LOLRI = assay: Pre-emergence action at 320 g/ha against LOLRI; format: in vivo, Lolium rigidum; settings: visual scoring after about 3 weeks vs untreated controls
Summary of the method: as §1

SETVI [7] = assay: Post-emergence action at 320 g/ha against SETVI; format: in vivo, Setaria viridis; settings: visual rating about 3 weeks after treatment vs untreated controls
Summary of the method: as §3

ECHCG = assay: Post-emergence action at 320 g/ha against ECHCG; format: in vivo, Echinochloa crus-galli; settings: dosage 320 g/ha, visual rating about 3 weeks after treatment vs untreated controls (100% = plants died)
Excerpt: as §2

POLCO [8] = assay: Post-emergence action at 320 g/ha against POLCO; format: in vivo, Fallopia convolvulus (Polygonum convolvulus); settings: visual rating about 3 weeks after treatment vs untreated controls
Excerpt: as §2

DIGSA [9] = assay: Post-emergence action at 320 g/ha against DIGSA; format: in vivo, Digitaria sanguinalis; settings: dosage 320 g/ha, visual rating about 3 weeks after treatment vs untreated controls (100% = plants died)
Summary of the method: as §3

SETVI [10] = assay: Pre-emergence action at 320 g/ha against SETVI; format: in vivo, Setaria viridis; settings: visual scoring after about 3 weeks vs untreated controls
Summary of the method: as §1

AVEFA [11] = assay: Post-emergence action at 320 g/ha against AVEFA; format: in vivo; settings: visual rating about 3 weeks after treatment vs untreated controls
Summary of the method: as §3

AVEFA [12] = assay: Pre-emergence action at 320 g/ha against AVEFA; format: in vivo; settings: visual scoring after about 3 weeks vs untreated controls
Summary of the method: as §1

VIOTR [13] = assay: Pre-emergence action at 320 g/ha against VIOTR; format: in vivo, Viola tricolor; settings: dosage 320 g/ha
Summary of the method: as §1

AMARE [14] = assay: Post-emergence action at 320 g/ha against AMARE; format: in vivo, Amaranthus retroflexus; settings: visual rating about 3 weeks after treatment vs untreated controls
Excerpt: as §2

AMARE [15] = assay: Pre-emergence action at 320 g/ha against AMARE; format: in vivo, Amaranthus retroflexus; settings: visual scoring after about 3 weeks vs untreated controls
Summary of the method: as §1

PHBPU [16] = assay: Post-emergence action at 320 g/ha against PHBPU; format: in vivo; settings: visual rating about 3 weeks after treatment vs untreated controls
Excerpt: as §2

ABUTH [17] = assay: Pre-emergence action at 320 g/ha against ABUTH; format: in vivo, Abutilon theophrasti; settings: greenhouse, scored visually after about 3 weeks vs untreated controls, 100% = plants have died, 0% = like control plants
Excerpt: (§4) b) Seeds of monocotyledonous and dicotyledonous weed plants and crop plants are placed in plastic or organic planting pots and covered with soil. The compounds of the invention, formulated in the form of wettable powders (WP) or as emulsion concentrates (EC), are then applied onto the surface of the covering soil as aqueous suspension or emulsion with addition of 0.5% additive at a water application rate of 600 l/ha (converted). After the treatment, the pots are placed in a greenhouse and kept under good growth conditions for the trial plants. After about 3 weeks, the effect of the preparations is scored visually in comparison with untreated controls as percentages. For example, 100% activity=the plants have died, 0% activity=like control plants. Tables 13 to 26 below show the effects of selected compounds of the general formula (I) on various harmful plants and at an application rate corresponding to 320 g/ha, which were obtained by the experimental procedure mentioned above.

MATIN = assay: Pre-emergence action at 320 g/ha against MATIN; format: in vivo, Tripleurospermum inodorum (Matricaria inodora); settings: visual scoring after about 3 weeks vs untreated controls
Summary of the method: as §1

PHBPU [18] = assay: Pre-emergence action at 320 g/ha against PHBPU; format: in vivo; settings: visual scoring after about 3 weeks vs untreated controls
Excerpt: as §4

Compound | Pre-emergence action at 320 g/ha against ALOMY in % (ALOMY [1]) [%] | Pre-emergence action against VERPE in % (VERPE) [%] | Post-emergence action against VIOTR in % (VIOTR [2]) [%] | Pre-emergence action against POLCO in % (POLCO [3]) [%] | Pre-emergence action against DIGSA in % (DIGSA [4]) [%] | Post-emergence action against ALOMY (ALOMY [5]) [%] | Pre-emergence action against ECHGC in % (ECHGC) [%] | Post-emergence action against ABUTH in % (ABUTH [6]) [%] | Pre-emergence action against LOLRI in % (LOLRI) [%] | Post-emergence action against SETVI in % (SETVI [7]) [%] | Post-emergence action at 320 g/ha against ECHCG in % (ECHCG) [%] | Post-emergence action against POLCO in % (POLCO [8]) [%] | Post-emergence action at 320 g/ha against DIGSA in % (DIGSA [9]) [%] | Pre-emergence action against SETVI in % (SETVI [10]) [%] | Post-emergence action against AVEFA in % (AVEFA [11]) [%] | Pre-emergence action against AVEFA in % (AVEFA [12]) [%] | Pre-emergence action against VIOTR in % (VIOTR [13]) [%] | Post-emergence action against AMARE in % (AMARE [14]) [%] | Pre-emergence action against AMARE in % (AMARE [15]) [%] | Pre-emergence action against MATIN in % (MATIN) [%] | other results
CCOC(=O)COc1nn(-c2ccccc2F)c(-c2ccc(F)nc2)c1F [VII-034] | 90 | 80 | 80 | 90 | 100 | 90 | 90 | 80 | 90 | 90 | 90 | 80 | 90 | 100 | 90 | 90 | 100 | 80 | 100 |  | Post-emergence action against PHBPU in % (PHBPU [16]): 90%
CCOC(=O)[C@@H](C)Oc1nn(-c2ccccc2F)c(-c2cncc(F)c2)c1Br [VII-130] | 100 | 100 |  | 100 | 100 |  | 90 |  | 100 |  |  |  |  | 100 |  | 90 | 100 |  | 100 | 100 | Pre-emergence action at 320 g/ha against ABUTH in % (ABUTH [17]): 90%
COC(=O)COc1nn(-c2ccccc2F)c(-c2ccc(F)nc2)c1Br [VII-001] | 100 | 100 | 80 | 90 | 100 | 90 | 100 | 80 | 100 | 90 | 100 | 80 | 90 | 100 | 90 | 90 | 100 | 90 | 100 | 90 | Pre-emergence action against PHBPU in % (PHBPU [18]): 100%; Post-emergence action against PHBPU in % (PHBPU [16]): 90%
C[C@@H](Oc1nn(-c2cc(F)ccc2F)c(-c2cncc(F)c2)c1Br)C(=O)O [VII-137] | 100 | 100 |  | 90 |  |  | 90 |  | 100 |  |  |  |  | 100 |  | 90 | 100 |  | 100 | 90 | Pre-emergence action at 320 g/ha against ABUTH in % (ABUTH [17]): 90%
